Measurements: PubChem BioAssay (NCI)
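Each compound was tested at five concentrations against cells in 96-well plates for 48 hours. TGI is the concentration that stops growth completely.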

Legend:
Experiment in all cases: NCI-60 cell line screen, 48 h
[1] = system: 786-0 renal
[2] = system: A498 renal
[3] = system: A549 NSCLC
[4] = system: ACHN renal
[5] = system: BT-549 breast
[6] = system: CAKI-1 renal
[7] = system: CCRF-CEM leukemia
[8] = system: COLO 205 colon
[9] = system: DU-145 prostate
[10] = system: EKVX NSCLC
[11] = system: HCT-116 colon
[12] = system: HCT-15 colon
[13] = system: HL-60(TB) leukemia
[14] = system: HOP-62 NSCLC
[15] = system: HS 578T breast
[16] = system: HT29 colon
[17] = system: IGROV1 ovarian
[18] = system: K-562 leukemia
[19] = system: KM12 colon
[20] = system: LOX IMVI melanoma
[21] = system: M14 melanoma
[22] = system: MALME-3M melanoma
[23] = system: MCF7 breast
[24] = system: MDA-MB-231 breast
[25] = system: MDA-MB-435
[26] = system: MDA-N
[27] = system: MOLT-4 leukemia
[28] = system: NCI-H226 lung
[29] = system: NCI-H23 lung
[30] = system: NCI-H460 lung
[31] = system: NCI-H522 lung
[32] = system: NCI/ADR-RES ovarian
[33] = system: OVCAR-3 ovarian
[34] = system: OVCAR-4 ovarian
[35] = system: OVCAR-5 ovarian
[36] = system: OVCAR-8 ovarian
[37] = system: PC-3 prostate
[38] = system: RPMI-8226 leukemia
[39] = system: RXF 393 renal
[40] = system: SF-268 CNS
[41] = system: SF-295 CNS
[42] = system: SK-MEL-2 melanoma
[43] = system: SK-MEL-28 melanoma
[44] = system: SK-MEL-5 melanoma
[45] = system: SN12C renal
[46] = system: SNB-19 CNS
[47] = system: SW-620 colon
[48] = system: T-47D breast
[49] = system: TK-10 renal
[50] = system: U251 CNS
[51] = system: UACC-257 melanoma
[52] = system: UACC-62 melanoma
[53] = system: UO-31 renal
[54] = system: HCC-2998 colon
[55] = system: HOP-92 NSCLC
[56] = system: SF-539 CNS
[57] = system: SK-OV-3 ovarian
[58] = system: SNB-75 CNS
[59] = system: SR leukemia

`Cc1cccc(N2C(=O)C3c4[nH]c5ccccc5c4C4CCC(C(C)(C)C)CC4C3C2=O)c1` (centres undefined) was tested, and the TGI [1] was 12.2 µM, the TGI [2] was 25.8 µM and the TGI [3] was 22.3 µM. It also gave a TGI [4] of 17.7 µM, a TGI [5] of 33.5 µM and a TGI [6] of 26.1 µM. The TGI [7] was 23.5 µM, the TGI [8] was 24.2 µM and the TGI [9] was 33.4 µM. The TGI [10] was 31.4 µM, the TGI [11] was 21.2 µM and the TGI [12] was > 100 µM. The TGI [13] was > 100 µM, the TGI [14] was 13.3 µM and the TGI [15] was 29.2 µM. For the same compound, the TGI [16] was 28.9 µM, the TGI [17] was 16.4 µM and the TGI [18] was 17.4 µM. It also gave a TGI [19] of 25.2 µM, a TGI [20] of 12.9 µM and a TGI [21] of 28.3 µM. For the same compound, the TGI [22] was 28 µM, the TGI [23] was 24.5 µM and the TGI [24] was 21.3 µM. The TGI [25] was 29.6 µM, the TGI [26] was 30.7 µM and the TGI [27] was 21.3 µM. It also gave a TGI [28] of 34.1 µM, a TGI [29] of 30.1 µM and a TGI [30] of 19 µM. The TGI [31] was 24.3 µM, the TGI [32] was 32.2 µM and the TGI [33] was 27.4 µM. The TGI [34] was 25.7 µM, the TGI [35] was 35.2 µM and the TGI [36] was 13.3 µM. For the same compound, the TGI [37] was 24.8 µM, the TGI [38] was 25.8 µM and the TGI [39] was 26.3 µM. The TGI [40] was 13.7 µM, the TGI [41] was 21.9 µM and the TGI [42] was 34.4 µM. The TGI [43] was 31.4 µM, the TGI [44] was 28.4 µM and the TGI [45] was 30.5 µM. For the same compound, the TGI [46] was 26 µM, the TGI [47] was 24.1 µM and the TGI [48] was > 100 µM. For the same compound, the TGI [49] was 27.2 µM, the TGI [50] was 47.8 µM and the TGI [51] was 44.6 µM. The TGI [52] was 49 µM and the TGI [53] was 28.6 µM.

For `Cc1cc(=O)n2nc(CCl)sc2n1`, the TGI [1] was 37 µM, the TGI [3] was 35 µM and the TGI [4] was 27.5 µM. For the same compound, the TGI [5] was 17.5 µM, the TGI [6] was 23.1 µM and the TGI [7] was 40.8 µM. For the same compound, the TGI [8] was 33.5 µM, the TGI [9] was 40.6 µM and the TGI [10] was 36 µM. For the same compound, the TGI [54] was 31.1 µM, the TGI [11] was 24.9 µM and the TGI [12] was 27.1 µM. It also gave a TGI [13] of 38.2 µM, a TGI [14] of 40.2 µM and a TGI [55] of 28.2 µM. The TGI [15] was 55.9 µM, the TGI [16] was 30.5 µM and the TGI [17] was 37 µM. The TGI [18] was 37.7 µM, the TGI [19] was 27.4 µM and the TGI [20] was 17.1 µM. It also gave a TGI [21] of 23.4 µM, a TGI [22] of 26.4 µM and a TGI [23] of 28.7 µM. For the same compound, the TGI [24] was 37.5 µM, the TGI [25] was 26.3 µM and the TGI [26] was 27.7 µM. For the same compound, the TGI [27] was 36.3 µM, the TGI [28] was 34.9 µM and the TGI [29] was 47.1 µM. It also gave a TGI [30] of 29.5 µM, a TGI [31] of 20 µM and a TGI [32] of 48 µM. For the same compound, the TGI [33] was 28.4 µM, the TGI [34] was 32.4 µM and the TGI [35] was 28.9 µM. It also gave a TGI [36] of 35.5 µM, a TGI [37] of 29.8 µM and a TGI [38] of 50.6 µM. For the same compound, the TGI [39] was 20.8 µM, the TGI [40] was 39.5 µM and the TGI [41] was 42.9 µM. For the same compound, the TGI [56] was 34.1 µM, the TGI [42] was 28.7 µM and the TGI [43] was 28.6 µM. It also gave a TGI [44] of 23 µM, a TGI [57] of 53.2 µM and a TGI [45] of 35 µM. It also gave a TGI [46] of 39 µM, a TGI [58] of 28.6 µM and a TGI [59] of 87 µM. It also gave a TGI [47] of 37.5 µM, a TGI [48] of 32.3 µM and a TGI [49] of 23 µM. For the same compound, the TGI [50] was 20.3 µM, the TGI [51] was 25.2 µM and the TGI [52] was 46.9 µM. The TGI [53] was 28.8 µM.

`Cc1csc2c1-n1cccc1C2=O` was tested, and the TGI [1] was > 100 µM, the TGI [2] was > 100 µM and the TGI [3] was > 100 µM. The TGI [4] was > 100 µM, the TGI [5] was > 100 µM and the TGI [6] was > 100 µM. The TGI [7] was > 100 µM, the TGI [8] was > 100 µM and the TGI [9] was > 100 µM. For the same compound, the TGI [10] was > 100 µM, the TGI [54] was > 100 µM and the TGI [11] was > 100 µM. The TGI [12] was > 100 µM, the TGI [14] was > 100 µM and the TGI [15] was > 100 µM. The TGI [16] was > 100 µM, the TGI [17] was > 100 µM and the TGI [18] was > 100 µM. The TGI [19] was > 100 µM, the TGI [20] was > 100 µM and the TGI [21] was > 100 µM. The TGI [22] was > 100 µM, the TGI [23] was > 100 µM and the TGI [24] was > 100 µM. The TGI [25] was > 100 µM, the TGI [26] was > 100 µM and the TGI [27] was > 100 µM. For the same compound, the TGI [28] was > 100 µM, the TGI [30] was > 100 µM and the TGI [31] was > 100 µM. For the same compound, the TGI [32] was > 100 µM, the TGI [33] was > 100 µM and the TGI [34] was > 100 µM. The TGI [35] was > 100 µM, the TGI [36] was > 100 µM and the TGI [37] was > 100 µM. For the same compound, the TGI [38] was > 100 µM, the TGI [39] was > 100 µM and the TGI [40] was > 100 µM. The TGI [41] was > 100 µM, the TGI [42] was > 100 µM and the TGI [43] was > 100 µM. For the same compound, the TGI [44] was > 100 µM, the TGI [57] was > 100 µM and the TGI [45] was > 100 µM. The TGI [46] was > 100 µM, the TGI [58] was > 100 µM and the TGI [59] was > 100 µM. The TGI [47] was > 100 µM, the TGI [48] was > 100 µM and the TGI [49] was > 100 µM. For the same compound, the TGI [50] was > 100 µM, the TGI [51] was > 100 µM and the TGI [52] was > 100 µM. The TGI [53] was > 100 µM.

`O=C(/C=C(\S/C=C(/c1ccccc1)N1CCn2c(C(=O)c3ccccc3)c(C(=O)c3ccccc3)c(C(=O)c3ccccc3)c21)C(=O)c1ccccc1)c1ccccc1` was tested, and the TGI [1] was > 10 µM, the TGI [3] was > 10 µM and the TGI [4] was > 10 µM. The TGI [5] was > 10 µM, the TGI [6] was > 10 µM and the TGI [7] was > 10 µM. For the same compound, the TGI [8] was > 10 µM, the TGI [9] was > 10 µM and the TGI [10] was > 10 µM. The TGI [54] was > 10 µM, the TGI [11] was > 10 µM and the TGI [12] was > 10 µM. For the same compound, the TGI [13] was > 10 µM, the TGI [14] was > 10 µM and the TGI [55] was > 10 µM. For the same compound, the TGI [15] was > 10 µM, the TGI [16] was > 10 µM and the TGI [17] was > 10 µM. For the same compound, the TGI [18] was > 10 µM, the TGI [19] was > 10 µM and the TGI [21] was > 10 µM. For the same compound, the TGI [22] was > 10 µM, the TGI [23] was > 10 µM and the TGI [24] was > 10 µM. For the same compound, the TGI [25] was > 10 µM, the TGI [26] was > 10 µM and the TGI [27] was > 10 µM. The TGI [29] was > 10 µM, the TGI [30] was > 10 µM and the TGI [31] was > 10 µM. The TGI [32] was > 10 µM, the TGI [33] was > 10 µM and the TGI [34] was > 10 µM. For the same compound, the TGI [35] was > 10 µM, the TGI [36] was > 10 µM and the TGI [37] was > 10 µM. For the same compound, the TGI [38] was > 10 µM, the TGI [40] was > 10 µM and the TGI [41] was > 10 µM. The TGI [56] was > 10 µM, the TGI [42] was > 10 µM and the TGI [43] was > 10 µM. The TGI [44] was > 10 µM, the TGI [57] was > 10 µM and the TGI [45] was > 10 µM. The TGI [46] was > 10 µM, the TGI [58] was > 10 µM and the TGI [47] was > 10 µM. The TGI [48] was > 10 µM, the TGI [49] was > 10 µM and the TGI [50] was > 10 µM. The TGI [51] was > 10 µM and the TGI [52] was > 10 µM.
